The record followed here is patent US20210207099A1, “METHODS AND COMPOSITIONS FOR GENERATING CELLS OF ENDODERMAL LINEAGE AND BETA CELLS AND USES THEREOF” (priority 2018, published 2021).

The structures appear in SMILES notation.

What all share (type): cell-based, human
The subject of data set [1] is F-actin. Kind of data set: F-actin staining and G/F actin ratio by western blot. The settings on record: 1 μM for 24 hours, plated stage 4 cells. The procedure:
Brightfield images were taken with a Leica DMi1 inverted light microscope, and fluorescence images were captured with a Nikon A1Rsi confocal microscope. For immunostaining, cells were fixed with 4% paraformaldehyde (PFA) at room temperature for 30 minutes. They were then blocked and permeabilized for 45 minutes at room temperature with an immunocytochemistry (ICC) solution consisting of 0.1% triton X (Acros Organics, 327371000) and 5% donkey serum (Jackson Immunoresearch, 017000-121) in PBS (Corning, 21-040-CV). Samples were then incubated with primary antibodies diluted in ICC solution overnight at 4° C., washed with ICC, incubated with secondary antibodies diluted in ICC for 2 hours at room temperature, and stained with DAPI for 15 minutes at room temperature. For histological sectioning, whole SC-β cell clusters generated with the planar protocol and mouse kidneys containing transplanted cells were fixed overnight with 4% PFA at 4° C. The in vitro clusters were also embedded in Histogel (Thermo Scientific, hg-4000-012). These samples were then paraffin-embedded and sectioned by the Division of Comparative Medicine (DCM) Research Animal Diagnostic Laboratory Core at Washington University in St. Louis. Paraffin was removed from sectioned samples with Histoclear (Thermo Scientific, C78-2-G), and antigen retrieval was carried out in a pressure cooker (Proteogenix, 2100 Retriever) with 0.05 M EDTA (Ambion, AM9261). Slides were blocked and permeabilized with ICC solution for 45 minutes, incubated with primary antibodies in ICC solution overnight at 4° C., and incubated with secondary antibodies for 2 hours at room temperature. Slides were then sealed with DAPI Fluoromount-G (SouthernBiotech, 0100-20).
G/F actin ratio was determined by western blot following the instructions of the G-actin/F-actin In Vivo Assay Kit (Cytoskeleton, Inc, BK037). Western blot was visualized using SuperSignal West Pico PLUS Chemiluminescent substrate (ThermoScientific, 34577) and the Odyssey FC (LI-COR) imager.
(In general: Immunoblotting shows a protein as a band on a membrane.)

Data set [2] deals with plated pancreatic progenitors. As to the kind of experiment: Single-cell RNA sequencing of plated pancreatic progenitors treated throughout stage 4. The settings on record: 0.5 μM latrunculin A throughout stage 4. The procedure:
Cells generated with the suspension protocol were single-cell dispersed with TrypLE from clusters at the end of stage 3 and seeded onto collagen 1 coated 24-well plates at 0.625×10^6 cells/cm^2. Either 0.5 μM latrunculin A or 5 μM nocodazole were added throughout the entirety of stage 4. At the end of stage 4, cells were single-cell dispersed, suspended in DMEM, and submitted to the Washington University Genome Technology Access Center. Library preparation was done using the Chromium Single Cell 3′ Library and Gel Bead Kit v2 (10× Genomics, 120237). Briefly, single cells were isolated in emulsions using a microfluidic platform, and each single cell emulsion was barcoded with a unique set of oligonucleotides. The GemCode Platform was used to carry out reverse transcription within each single cell emulsion, which was amplified to construct a library. The libraries were sequenced with paired-end reads of 26×98 primerbp using the Illumina HiSeq2500.
Seurat v2.0 was used to perform single cell RNA analyses. Duplicate cells and cells with high mitochondrial gene expression were filtered out using FilterCells (>9000 total genes and >5% mitochondrial genes for Untreated Control, >6000 genes and >6% mitochondrial genes for latrunculin A, >12000 genes and >4% mitochondrial genes for nocodazole). Each data set was normalized using global-scaling normalization. FindVariableGenes identified and removed outlier genes using scaled z-score dispersion. The datasets were then combined and a canonical correlation analysis (CCA) was performed with RunMultiCCA. AlignSubspace was used to align the CCA subspaces and generated a new dimension reduction for integrated analysis. Unsupervised TSNE plots were generated using RunTSNE, and the resulting clusters were defined and labeled using FindMarkers. VInPlot (Violin plots) and FeaturePlot (tsne plots) were used to visualize differences in gene expressions across each cluster and conditions.

For data set [3], the system named is HUES8 cells, intestinal differentiation protocol. Kind of data set: Intestine differentiation with cytoskeletal compounds. Conditions: 1 μM for the first 24 hours of stage 2. The procedure: (§1) For differentiation to other endodermal lineages, HUES8 stem cells were cultured and passaged normally. Differentiations were initiated 24 hours after seeding 24-well plates at 0.521×10^6 cells/cm^2. Protocols for exocrine pancreas, intestine, and liver were adapted, from literature. Either latrunculin A or nocodazole were added as indicated in each protocol. All three differentiation protocols used the same stage 1 to induce endoderm. Stage 1 (4 days): BE1 media+100 ng/mL Activin A+3 μM CHIR99021 for the first 24 hours, followed with 3 days of BE1 containing 100 ng/mL Activin A only.
Intestine Differentiation: Stage 2 (4 days): BE2 media+3 μM CHIR99021+500 ng/mL FGF4 (R&D Systems, 235-F4). Either 1 μM latrunculin A was added for the first 24 hours of this stage, or 1 μM nocodazole was added for the entirety of stage 2. Stage 3 (7 days): BE3 media+500 ng/mL R-spondin1 (R&D Systems, 4645-RS)+100 ng/mL EGF (R&D Systems, 236-EG)+200 nM LDN193189.

Data set [4] relates to HUES8 cells, hepatic differentiation protocol. Kind of data set: Liver differentiation with cytoskeletal compounds. The settings on record: 1 μM for the first 24 hours of stage 3. The procedure: as §1
Liver Differentiation: Stage 2 (2 days): BE2 media+50 ng/mL KGF. Stage 3 (4 days): BE3 media+10 ng/mL bFGF+30 ng/mL BMP4 (R&D Systems, 314-BP). For the first 24 hours only, 2 μM retinoic acid and either 1 μM latrunculin A or 1 μM nocodazole were added. Stage 4 (5 days): BE3 media+20 ng/mL OSM (R&D Systems, 295-OM)+20 ng/mL HGF (R&D Systems, 294-HG)+100 nM dexamethasone (MilliporeSigma, D4902).

Turning to `C/C1=C/C(=O)O[C@@H]2C[C@@H](CC[C@H](C)/C=C\C=C\CC1)O[C@@](O)([C@@H]1CSC(=O)N1)C2` [latrunculin A], in data set [1], the F-actin polymerization state entry is on record as “almost complete depolymerization of F-actin”, the G/F-actin ratio result is reported as “increased G/F-actin ratio” and the “PDX1 expression by immunostaining” value is on record as “maintenance of PDX1 expression”. In data set [2], the “percentage of cells in the NKX6-1+ population (pancreatic progenitor 2)” value stood at 2.5% and the “percentage of cells with endocrine induction” value is given as 44.7%. Also, the “markers of intestinal stem cells and Paneth cells” value in data set [3] was “greatly increased markers intestinal stem cells as well as Paneth cells”. In addition, in data set [4], the hepatocyte gene expression entry is recorded as “increased hepatocyte gene expression” and the “immunostaining for AFP” value is given as “more prevalent with latrunculin A treatment”.
